In series [1] the target is T1, Amine oxidase [flavin-containing] B (Mus musculus, UniProt Q8BW75).
T1 sequence (Q8BW75 whole entry): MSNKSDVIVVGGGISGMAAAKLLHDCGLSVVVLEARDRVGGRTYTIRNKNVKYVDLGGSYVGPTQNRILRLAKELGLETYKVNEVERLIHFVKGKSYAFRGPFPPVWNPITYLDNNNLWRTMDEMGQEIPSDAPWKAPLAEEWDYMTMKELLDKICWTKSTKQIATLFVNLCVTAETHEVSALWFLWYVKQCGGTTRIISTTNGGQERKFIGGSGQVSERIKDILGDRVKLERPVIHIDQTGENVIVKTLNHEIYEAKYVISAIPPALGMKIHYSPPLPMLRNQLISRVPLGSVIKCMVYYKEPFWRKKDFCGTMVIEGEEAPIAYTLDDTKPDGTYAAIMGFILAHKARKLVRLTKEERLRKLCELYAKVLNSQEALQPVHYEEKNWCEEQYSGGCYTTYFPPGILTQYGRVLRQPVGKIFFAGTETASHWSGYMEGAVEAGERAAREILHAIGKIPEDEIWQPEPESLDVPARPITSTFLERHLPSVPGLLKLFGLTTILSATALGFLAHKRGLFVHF
Kind of series: Inhibition of MAO-B in mouse cerebral homogenate using kynuramine as substrate after 30 mins by fluorimetry in the presence of MOA-A inhibitor clorgyline relative to control. The following applies: 0.5 h.

The target in series [2] is T1, Amine oxidase [flavin-containing] B. Kind of series: Inhibition of MAO-B in mouse cerebral homogenate using kynuramine as substrate after 30 mins by fluorimetry in the presence of MOA-A inhibitor clorgyline.
The target is the same in series [3]. Kind of series: Ratio of compound Ki to KW-6002 Ki for MAO-B in mouse cerebral homogenate.

SMILES strings stand for the structures.

As a reminder, the IC50 is the concentration at which inhibition is half-maximal. A word on the Ki: it is the equilibrium dissociation constant of an inhibitor or competing ligand from its target.

As for `Cc1ccc(C(=O)Nc2ccc(-c3nc4c([nH]3)c(=O)n(C)c(=O)n4C)cc2)cc1`, the “inhibition (INH)” value in series [1] was 42.3%. In series [2], the IC50 was found to be 13.9 µM and the Ki was determined as 2.77 µM.

`COc1ccc(C(=O)Nc2ccc(-c3nc4c([nH]3)c(=O)n(C)c(=O)n4C)cc2)cc1`: in series [1], the “inhibition (INH)” value is listed as 32.1%. For the same compound, in series [2], the IC50 is 17.2 µM and the Ki came to 3.97 µM.

On to `Cn1c(=O)c2c(nc(-c3ccc(NC(=O)c4ccccc4)cc3)n2C)n(C)c1=O`, for which the “inhibition (INH)” value in series [1] is reported as 67.4%. In series [2], the IC50 was determined as 8.9 µM and the Ki turned out to be 0.26 µM. Also, the “Ratio Ki” value in series [3] came to 42.

As for `Cc1ccc(C(=O)Nc2ccc(-c3nc4c(c(=O)n(C)c(=O)n4C)n3C)cc2)cc1`, in series [1], the “inhibition (INH)” value was determined as 53.7%. For the same compound, in series [2], the IC50 was 11.3 µM and the Ki worked out at 1.63 µM.

Take `COc1ccc(C(=O)Nc2ccc(-c3nc4c(c(=O)n(C)c(=O)n4C)n3C)cc2)cc1`: the “inhibition (INH)” value in series [1] was determined as 58.2%. In series [2], the IC50 was found to be 10.7 µM and the Ki came out at 1.18 µM.

As to `Cn1c(=O)c2[nH]c(-c3cccc(NC(=O)c4ccccc4)c3)nc2n(C)c1=O`, the “inhibition (INH)” value in series [1] amounted to 27.9%. In series [2], the IC50 came out at 18.9 µM and the Ki was 4.21 µM.

In the case of `Cc1ccc(C(=O)Nc2cccc(-c3nc4c([nH]3)c(=O)n(C)c(=O)n4C)c2)cc1`, the “inhibition (INH)” value in series [1] amounted to 41.6%. In series [2], the IC50 came out at 14 µM and the inhibition constant (Ki) is 2.87 µM.

As for `COc1ccc(C(=O)Nc2cccc(-c3nc4c([nH]3)c(=O)n(C)c(=O)n4C)c2)cc1`, the “inhibition (INH)” value in series [1] was determined as 35.1%. Also, in series [2], the IC50 stood at 16 µM and the Ki came to 3.49 µM.

Take `Cn1c(=O)c2c(nc(-c3cccc(NC(=O)c4ccccc4)c3)n2C)n(C)c1=O`: the “inhibition (INH)” value in series [1] is listed as 40.5%. In series [2], the IC50 is 14.5 µM and the Ki amounted to 2.95 µM.

On to `Cc1ccc(C(=O)Nc2cccc(-c3nc4c(c(=O)n(C)c(=O)n4C)n3C)c2)cc1`, for which, in series [1], the “inhibition (INH)” value stood at 34.4%. Besides, in series [2], the IC50 is 16.7 µM and the Ki was found to be 3.56 µM.

For the compound `COc1ccc(C(=O)Nc2cccc(-c3nc4c(c(=O)n(C)c(=O)n4C)n3C)c2)cc1`, the “inhibition (INH)” value in series [1] is given as 30.8%. For the same compound, in series [2], the IC50 came out at 17.8 µM and the Ki worked out at 3.92 µM.

Source of the values: ChEMBL document CHEMBL1949551, “Design and synthesis of 8-substituted benzamido-phenylxanthine derivatives as MAO-B inhibitors” (Bioorg Med Chem Lett, 2012).
